The experiment concerns the target Integrin alpha-IIb/beta-3 (Homo sapiens, UniProt P05106+P08514). The experiment is described as follows: Inhibition of integrin alphaIIb-beta3 binding. Format: protein-complex assay.

This note sets out measurements from ChEMBL document CHEMBL1134590, “Determination of the binding specificity of an integral membrane protein by saturation transfer difference NMR: RGD peptide ligands binding to integrin alphaIIbbeta3” (J Med Chem, 2001).

A value given as a limit tells only on which side of the number the result lay.

Sequence of Integrin alpha-IIb/beta-3 (P05106 27-788 limits assumed): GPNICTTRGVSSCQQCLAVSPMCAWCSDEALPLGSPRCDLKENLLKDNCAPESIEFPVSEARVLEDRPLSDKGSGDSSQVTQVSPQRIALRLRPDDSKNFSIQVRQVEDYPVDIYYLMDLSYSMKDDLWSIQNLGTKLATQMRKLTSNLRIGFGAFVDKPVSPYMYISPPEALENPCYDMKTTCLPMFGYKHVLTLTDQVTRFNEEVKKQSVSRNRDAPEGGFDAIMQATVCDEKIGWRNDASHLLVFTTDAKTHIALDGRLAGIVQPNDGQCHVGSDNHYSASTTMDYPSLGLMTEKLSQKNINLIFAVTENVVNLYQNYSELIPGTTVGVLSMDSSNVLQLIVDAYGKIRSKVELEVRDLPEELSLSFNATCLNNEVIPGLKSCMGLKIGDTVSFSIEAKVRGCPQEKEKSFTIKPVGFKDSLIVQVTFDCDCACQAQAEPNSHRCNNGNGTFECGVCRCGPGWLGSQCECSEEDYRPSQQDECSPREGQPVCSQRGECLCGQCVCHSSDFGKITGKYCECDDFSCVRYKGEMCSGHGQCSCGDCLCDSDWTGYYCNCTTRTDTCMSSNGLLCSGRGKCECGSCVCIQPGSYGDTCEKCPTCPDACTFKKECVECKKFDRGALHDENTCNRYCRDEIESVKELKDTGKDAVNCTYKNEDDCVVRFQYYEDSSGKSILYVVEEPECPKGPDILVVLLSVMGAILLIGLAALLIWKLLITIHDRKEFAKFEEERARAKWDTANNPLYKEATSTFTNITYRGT
Sequence of Integrin alpha-IIb/beta-3 (P08514 32-887 limits assumed): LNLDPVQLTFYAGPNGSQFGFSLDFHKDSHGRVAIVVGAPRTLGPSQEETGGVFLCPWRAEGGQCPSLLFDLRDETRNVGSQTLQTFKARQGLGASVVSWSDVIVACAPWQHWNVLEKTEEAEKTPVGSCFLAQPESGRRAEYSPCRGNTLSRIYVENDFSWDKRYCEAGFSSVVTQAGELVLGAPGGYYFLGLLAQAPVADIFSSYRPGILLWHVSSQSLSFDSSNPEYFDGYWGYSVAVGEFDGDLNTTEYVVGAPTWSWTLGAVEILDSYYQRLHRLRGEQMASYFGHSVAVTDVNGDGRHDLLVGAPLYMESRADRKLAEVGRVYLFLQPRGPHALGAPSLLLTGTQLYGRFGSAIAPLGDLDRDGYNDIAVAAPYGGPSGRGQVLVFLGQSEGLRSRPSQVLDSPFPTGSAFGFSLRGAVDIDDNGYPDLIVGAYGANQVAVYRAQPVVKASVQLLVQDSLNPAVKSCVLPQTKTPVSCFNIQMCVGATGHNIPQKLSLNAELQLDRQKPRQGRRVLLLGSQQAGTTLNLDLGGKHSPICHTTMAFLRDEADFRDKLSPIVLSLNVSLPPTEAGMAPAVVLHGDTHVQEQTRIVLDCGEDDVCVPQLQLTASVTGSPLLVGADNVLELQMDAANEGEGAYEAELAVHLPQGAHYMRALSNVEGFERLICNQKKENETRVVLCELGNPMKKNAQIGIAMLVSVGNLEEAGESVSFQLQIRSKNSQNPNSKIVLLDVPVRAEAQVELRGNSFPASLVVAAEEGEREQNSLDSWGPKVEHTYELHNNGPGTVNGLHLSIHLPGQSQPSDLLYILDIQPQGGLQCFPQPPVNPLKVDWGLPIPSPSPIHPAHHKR
Sequence of Integrin alpha-IIb/beta-3 (P08514 891-1039 limits assumed): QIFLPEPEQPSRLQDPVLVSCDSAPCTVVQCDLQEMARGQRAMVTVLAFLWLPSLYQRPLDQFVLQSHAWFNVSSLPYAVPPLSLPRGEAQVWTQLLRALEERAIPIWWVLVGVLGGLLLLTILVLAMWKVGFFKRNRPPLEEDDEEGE

Turning to `N=C(N)NCCC[C@H](N)C(=O)NCC(=O)N[C@@H](CC(=O)O)C(=O)O`, the IC50 (commonly the concentration at which inhibition is half-maximal) was > 1000 µM.
